Reference: ChEMBL document CHEMBL5370539, “Oxazole-4-carboxamide/butylated hydroxytoluene hybrids with GSK-3β inhibitory and neuroprotective activities against Alzheimer's disease” (Eur J Med Chem, 2023)
The source made the active and inactive calls. The rule behind the calls is not given here.

Columns and labels:
[1] = target: T1, Glycogen synthase kinase-3 beta (Homo sapiens, UniProt P49841); test: Inhibition of recombinant human GSK-3beta using YRRAAVPPSPSLSRHSSPHQ(pS)EDEE as substrate preincubated for 15 mins followed by substrate addition and measured after 60 mins by Kinase-Glo luminescent kinase assay
Target sequence in this assay (P49841 whole entry): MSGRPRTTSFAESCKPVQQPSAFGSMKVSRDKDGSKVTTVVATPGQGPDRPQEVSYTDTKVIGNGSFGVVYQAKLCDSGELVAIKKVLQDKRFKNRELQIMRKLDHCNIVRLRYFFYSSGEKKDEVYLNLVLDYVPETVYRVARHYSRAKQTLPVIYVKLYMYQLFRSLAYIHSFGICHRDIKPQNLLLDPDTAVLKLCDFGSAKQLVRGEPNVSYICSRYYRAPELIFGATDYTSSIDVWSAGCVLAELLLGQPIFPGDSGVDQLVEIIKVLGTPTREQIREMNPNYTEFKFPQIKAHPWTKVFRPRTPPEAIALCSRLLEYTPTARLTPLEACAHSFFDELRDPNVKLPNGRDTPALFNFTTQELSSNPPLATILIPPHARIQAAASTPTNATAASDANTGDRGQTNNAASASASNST

[2] = system: L02; test: Cytotoxicity against human L02 cells assessed as cell viability at 6.25 to 100 uM incubated for 24 hrs by MTT assay; type: toxicity, cell-based; conditions: l02, 24 h, dose 6.25-100 µM
[3] = target: T1, Glycogen synthase kinase-3 beta; test: Inhibition of human GSK-3beta overexpressed in human HEK293T cells assessed as reduction in GSK-3beta expression level at 0.625 to 10 uM incubated for 24 hrs by Western blot analysis; type: cell-based; conditions: dose 0.625-10 µM
Target sequence in this assay (P49841 whole entry, looked up): as the sequence (P49841 whole entry) above

[4] = target: T1, Glycogen synthase kinase-3 beta; test: Inhibition of human GSK-3beta overexpressed in human HEK293T cells assessed as decrease in Tau phosphorylation at s396 at 0.625 to 10 uM incubated for 24 hrs by Western blot analysis; type: cell-based; conditions: dose 0.625-10 µM
Target sequence in this assay (P49841 whole entry, looked up): as the sequence (P49841 whole entry) above

[5] = target: T1, Glycogen synthase kinase-3 beta; test: Inhibition of human GSK-3beta overexpressed in human HEK293T cells assessed as decrease in Tau phosphorylation at t205 at 0.625 to 10 uM incubated for 24 hrs by Western blot analysis; type: cell-based; conditions: dose 0.625-10 µM
Target sequence in this assay (P49841 whole entry, looked up): as the sequence (P49841 whole entry) above

[6] = system: PC-12; test: Neuroprotective activity against rat PC12 cells assessed as decrease in H2O2-induced mitochondrial membrane potential level at 2.5 uM preincubated for 12 hrs followed by replacement with fresh media and H2O2 stimulation for 12 hrs by JC-1 dye based flow cytometry (Rvb= 95.3%); type: functional; parameters: scale not given: the % may be the effect or the level left
[7] = system: PC-12; test: Neuroprotective activity against rat PC12 cells assessed as decrease in H2O2-induced mitochondrial membrane potential level at 5 uM preincubated for 12 hrs followed by replacement with fresh media and H2O2 stimulation for 12 hrs by JC-1 dye based flow cytometry (Rvb= 95.3%); type: functional; parameters: scale not given: the % may be the effect or the level left
[8] = system: PC-12; test: Neuroprotective activity against rat PC12 cells assessed as decrease in H2O2-induced intracellular Ca2+ level at 2.5 uM preincubated for 12 hrs followed by replacement with fresh media and H2O2 stimulation for 12 hrs by Fluo-3 AM based flow cytometry relative to control; type: functional; parameters: scale not given: the % may be the effect or the level left
[9] = system: PC-12; test: Anti-apoptotic activity against H2O2-induced apoptosis in rat PC12 cells assessed as dead cells at 2.5 uM preincubated for 12 hrs followed by replacement with fresh media and H2O2 stimulation for 12 hrs by Annexin-V/7-AAD staining based flow cytometry (Rvb=4.1%); type: functional
[10] = system: PC-12; test: Anti-apoptotic activity against H2O2-induced apoptosis in rat PC12 cells assessed as dead cells at 5 uM preincubated for 12 hrs followed by replacement with fresh media and H2O2 stimulation for 12 hrs by Annexin-V/7-AAD staining based flow cytometry (Rvb=4.1%); type: functional
[11] = system: PC-12; test: Anti-apoptotic activity against H2O2-induced apoptosis in rat PC12 cells assessed as dead cells at 10 uM preincubated for 12 hrs followed by replacement with fresh media and H2O2 stimulation for 12 hrs by Annexin-V/7-AAD staining based flow cytometry (Rvb=4.1%); type: functional
[12] = system: PC-12; test: Anti-apoptotic activity against H2O2-induced apoptosis in rat PC12 cells assessed as late apoptotic cells at 5 uM preincubated for 12 hrs followed by replacement with fresh media and H2O2 stimulation for 12 hrs by Annexin-V/7-AAD staining based flow cytometry (Rvb=2.2 %); type: functional
[13] = system: PC-12; test: Anti-apoptotic activity against H2O2-induced apoptosis in rat PC12 cells assessed as late apoptotic cells at 10 uM preincubated for 12 hrs followed by replacement with fresh media and H2O2 stimulation for 12 hrs by Annexin-V/7-AAD staining based flow cytometry (Rvb=2.2 %); type: functional
[14] = system: PC-12; test: Anti-apoptotic activity against H2O2-induced apoptosis in rat PC12 cells assessed as early apoptotic cells at 2.5 uM preincubated for 12 hrs followed by replacement with fresh media and H2O2 stimulation for 12 hrs by Annexin-V/7-AAD staining based flow cytometry (Rvb=0.8%); type: functional
[15] = system: PC-12; test: Anti-apoptotic activity against H2O2-induced apoptosis in rat PC12 cells assessed as early apoptotic cells at 10 uM preincubated for 12 hrs followed by replacement with fresh media and H2O2 stimulation for 12 hrs by Annexin-V/7-AAD staining based flow cytometry (Rvb=0.8%); type: functional
[16] = system: PC-12; test: Anti-apoptotic activity against H2O2-induced apoptosis in rat PC12 cells assessed as living cells at 2.5 uM preincubated for 12 hrs followed by replacement with fresh media and H2O2 stimulation for 12 hrs by Annexin-V/7-AAD staining based flow cytometry (Rvb=92.9%); type: functional
[17] = system: PC-12; test: Anti-apoptotic activity against H2O2-induced apoptosis in rat PC12 cells assessed as living cells at 5 uM preincubated for 12 hrs followed by replacement with fresh media and H2O2 stimulation for 12 hrs by Annexin-V/7-AAD staining based flow cytometry (Rvb=92.9%); type: functional
[18] = system: PC-12; test: Anti-apoptotic activity against H2O2-induced apoptosis in rat PC12 cells assessed as living cells at 10 uM preincubated for 12 hrs followed by replacement with fresh media and H2O2 stimulation for 12 hrs by Annexin-V/7-AAD staining based flow cytometry (Rvb=92.9%); type: functional
[19] = system: PC12; test: Activation of Nrf2-ARE pathway in rat PC-12 cells assessed as increase in Nrf2 expression level at 2.5 to 10 uM incubated for 12 hrs by Western blot analysis; type: cell-based; conditions: filed as activator, dose 2.5-10 µM
[20] = system: PC12; test: Activation of Nrf2-ARE pathway in rat PC-12 cells assessed as increase in TrxR1 expression level at 2.5 to 10 uM incubated for 6 hrs by Western blot analysis; type: cell-based; conditions: filed as activator, dose 2.5-10 µM
[21] = system: PC12; test: Activation of Nrf2-ARE pathway in rat PC-12 cells assessed as increase in HO-1 expression level at 2.5 to 10 uM incubated for 6 hrs by Western blot analysis; type: cell-based; conditions: filed as activator, dose 2.5-10 µM
[22] = system: PC12; test: Activation of Nrf2-ARE pathway in rat PC-12 cells assessed as increase in NQO1 expression level at 2.5 to 10 uM incubated for 12 hrs by Western blot analysis; type: cell-based; conditions: filed as activator, dose 2.5-10 µM
[23] = system: PC12; test: Activation of Nrf2-ARE pathway in rat PC-12 cells assessed as increase in GCLM expression level at 2.5 to 10 uM incubated for 24 hrs by Western blot analysis; type: cell-based; conditions: filed as activator, dose 2.5-10 µM
[24] = Toxicity in okadaic acid-induced cognitive impairment ICR mouse model assessed as swimming speed change at 0.08 to 0.24 mg/kg, iv twice at 3days interval before and after okadaic acid stimulation measured for 5 days by Morris water maze test; type: organism-based; conditions: in vivo, 120 h, dose 0.08-0.24 mg/kg, time 5 day
[25] = system: Mus musculus; test: Antialzheimer activity in okadaic acid-induced cognitive impairment ICR mouse model assessed as reduction in escape time at 0.08 to 0.24 mg/kg, iv twice at 3days interval before and after okadaic acid stimulation measured upto 14 days by Morris water maze test relative to control; type: functional, organism-based; conditions: dose 0.08-0.24 mg/kg, time <= 14.0 day
[26] = system: Mus musculus; test: Antialzheimer activity in okadaic acid-induced cognitive impairment ICR mouse model assessed as increase of search time in target quadrant at 0.08 to 0.24 mg/kg, iv twice at 3days interval before and after okadaic acid stimulation measured upto 14 days by Morris water maze test relative to control; type: functional, organism-based; conditions: dose 0.08-0.24 mg/kg, time <= 14.0 day
[27] = system: Mus musculus; test: Antialzheimer activity in okadaic acid-induced cognitive impairment ICR mouse model assessed as path tracing at 0.08 to 0.24 mg/kg, iv twice at 3days interval before and after okadaic acid stimulation measured upto 14 days by Morris water maze test relative to control; type: functional, organism-based; conditions: dose 0.08-0.24 mg/kg, time <= 14.0 day

For COc1ccc(-c2ocnc2C(=O)NCCCc2ccc(NC(=O)/C=C/c3cc(C(C)(C)C)c(O)c(C(C)(C)C)c3)cc2)cc1Cl, the IC50 [1] was 0.25 nM, the Activity [2] was “Non-Toxic” and the inhibition [3] was “Dose-Dependent Effect”. For the same compound, the inhibition [4] was “Dose-Dependent Effect”, the inhibition [5] was “Dose-Dependent Effect” and the Activity [6] was 68.4%. For the same compound, the Activity [7] was 72.6%, the Activity [8] was 24.5% and the Activity [9] was 1.3%. It also gave an Activity [10] of 2.5%, an Activity [11] of 1.3% and an Activity [12] of 12.9%. For the same compound, the Activity [13] was 6%, the Activity [14] was 5.5% and the Activity [15] was 2%. For the same compound, the Activity [16] was 76.8%, the Activity [17] was 93.1% and the Activity [18] was 90.7%. For the same compound, the Activity [19] was “Dose-Dependent Effect”, the Activity [20] was “Dose-Dependent Effect” and the Activity [21] was “Dose-Dependent Effect”. For the same compound, the Activity [22] was “Dose-Dependent Effect”, the Activity [23] was “Dose-Dependent Effect” and the Activity [24] was “Non-Toxic”. The Activity [25] was “Dose-Dependent Effect”, the Activity [26] was “Active” and the Activity [27] was “Active”.
